Experimental data as given in the NIST ThermoML archive (doi:10.1016/j.jct.2016.09.010).

Experiment: xn = mol fraction of the nth substance listed
Details: 100 kPa, Liquid; for speed of sound: Frequency=2 MHz, Linear variable-path acoustic interferometer; for mass density: Vibrating tube method

CCNc1ccccc1 [N-ethylaminobenzene] + CCOC(=O)C(C)O
Details	mass density, 303.15 K [kg/m3]	mass density, 308.15 K [kg/m3]	mass density, 313.15 K [kg/m3]	mass density, 318.15 K [kg/m3]	speed of sound, 303.15 K [m/s]	speed of sound, 308.15 K [m/s]	speed of sound, 313.15 K [m/s]	speed of sound, 318.15 K [m/s]
x2 = 0	952.41	947.69	942.95	938.23	1497	1481	1464	1448
x2 = 0.1195	960.29	955.52	950.71	945.92	1471.1	1455.4	1438.5	1422.6
x2 = 0.2183	966.93	962.08	957.2	952.34	1449.5	1433.6	1416.6	1400.6
x2 = 0.3177	973.69	968.76	963.8	958.86	1427.2	1411.2	1394	1377.7
x2 = 0.424	981.03	976.02	970.97	965.95	1402.7	1386.6	1369.2	1352.7
x2 = 0.5225	987.95	982.86	977.73	972.63	1379.6	1363.4	1345.8	1329.1
x2 = 0.6209	994.95	989.79	984.58	979.4	1355.9	1339.6	1321.8	1305
x2 = 0.726	1002.55	997.31	992.01	986.75	1330	1313.6	1295.6	1278.6
x2 = 0.8128	1008.91	1003.61	998.24	992.91	1308.3	1291.7	1273.6	1256.4
x2 = 0.9074	1015.91	1010.52	1005.09	999.68	1284.5	1267.6	1249.2	1231.8

CCOC(=O)C(C)O (stereo not drawn) [DL-ethyl lactate] + Nc1ccccc1
Details	mass density, 303.15 K [kg/m3]	mass density, 308.15 K [kg/m3]	mass density, 313.15 K [kg/m3]	mass density, 318.15 K [kg/m3]	speed of sound, 303.15 K [m/s]	speed of sound, 308.15 K [m/s]	speed of sound, 313.15 K [m/s]	speed of sound, 318.15 K [m/s]
x1 = 0.0788	1014.12	1010.12	1005.75	1001.3	1588.7	1570.3	1550.3	1531.4
x1 = 0.1638	1015.39	1011.23	1006.72	1002.15	1560.8	1542.5	1522.7	1504
x1 = 0.2514	1016.56	1012.23	1007.57	1002.88	1531.4	1513.2	1493.5	1474.8
x1 = 0.3445	1017.64	1013.15	1008.36	1003.55	1499.5	1481.4	1461.8	1443.2
x1 = 0.4393	1018.65	1014	1009.09	1004.17	1466.5	1448.5	1429	1410.5
x1 = 0.5461	1019.69	1014.87	1009.83	1004.79	1428.6	1410.8	1391.4	1373.1
x1 = 0.6484	1020.59	1015.62	1010.46	1005.31	1391.7	1374.1	1354.9	1336.8
x1 = 0.7644	1021.47	1016.33	1011.05	1005.79	1349.3	1331.9	1312.9	1295
x1 = 0.8737	1022.17	1016.88	1011.49	1006.13	1308.3	1291.1	1272.3	1254.7
x1 = 1	1022.88	1017.39	1011.83	1006.31	1261.1	1243.8	1224.8	1206.9

CNc1ccccc1 [N-methylaniline] + CCOC(=O)C(C)O
Details	mass density, 303.15 K [kg/m3]	mass density, 308.15 K [kg/m3]	mass density, 313.15 K [kg/m3]	mass density, 318.15 K [kg/m3]	speed of sound, 303.15 K [m/s]	speed of sound, 308.15 K [m/s]	speed of sound, 313.15 K [m/s]	speed of sound, 318.15 K [m/s]
x2 = 0	978.2	973.53	969.92	964.9	1547	1526.9	1511	1491.4
x2 = 0.1018	983.17	978.45	974.67	969.62	1520.1	1500.8	1485	1466.1
x2 = 0.1939	987.58	982.78	978.81	973.71	1495.5	1476.5	1460.5	1441.7
x2 = 0.2814	991.69	986.81	982.67	977.52	1471.8	1452.9	1436.6	1417.8
x2 = 0.3934	996.86	991.88	987.51	982.3	1440.7	1422.1	1405.4	1386.7
x2 = 0.491	1001.27	996.21	991.65	986.39	1413.1	1394.7	1377.7	1359.2
x2 = 0.5902	1005.66	1000.52	995.77	990.46	1384.5	1366.4	1349.1	1330.8
x2 = 0.6894	1009.96	1004.74	999.8	994.45	1355.5	1337.7	1320.1	1302
x2 = 0.7851	1014.03	1008.74	1003.62	998.22	1326.8	1309.5	1291.7	1273.8
x2 = 0.8937	1018.56	1013.19	1007.86	1002.41	1293.5	1276.4	1258.3	1240.7
